Measurements as given in paper PMC7144022, “Quinolinecarboxamides Inhibit the Replication of the Bovine Viral Diarrhea Virus by Targeting a Hot Spot for the Inhibition of Pestivirus Replication in the RNA-Dependent RNA Polymerase” (Molecules, 2020).

Legend:
[1] = Cytotoxicity assay, proliferation of exponentially growing MDBK cells (MTS/PMS); type: cell-based, bovine; conditions: bovine
Method: Assays were carried out, as described previously.

BVDV NADL virus = experiment: CPE-based antiviral assay, BVDV NADL in MDBK cells (MTS/PMS); conditions: for EC50: Bovine viral diarrhea virus isolates and strains, MDBK, 72 h; for S.I.: selectivity index, CC50 vs EC50
[2] = sheet CSFCI#, potency relative to TO505-6180 (EC50 0.07 µM)
[3] = sheet CSFCII#, potency relative to TO502-2403 (EC50 0.2 µM)

Structure (SMILES)	CC50 at 5 days [1] [µM]	EC50 (BVDV NADL virus) [µM]	S.I. (BVDV NADL virus)	fold increase (BVDV NADL virus; [2])	fold increase (BVDV NADL virus; [3])
Cc1cccc2sc(NC(=O)c3cc(-c4ccccc4)nc4ccccc34)nc12 [CSFC-1, Cc1cccc2sc(nc12)NC(=O)c1cc(nc2ccccc21)c1ccccc1]	> 100	0.3	333	0.23	–
Cc1ccc2nc(NC(=O)c3cc(-c4ccccc4)nc4ccccc34)sc2c1 [CSFC-2, Cc1ccc2nc(NC(=O)c3cc(nc4ccccc43)c3ccccc3)sc2c1]	> 100	5.7	18	0.0123	–
O=C(Nc1nc2ccccc2[nH]1)c1cc(-c2ccccc2)nc2ccccc12 [CSFC-3, O=C(Nc1nc2ccccc2[NH]1)c1cc(nc2ccccc21)c1ccccc1]	> 100	> 100	1	0.0007	–
Cn1c(NC(=O)c2cc(-c3ccccc3)nc3ccccc23)nc2ccccc21 [CSFC-4, O=C(Nc1nc2ccccc2n1C)c1cc(nc2ccccc21)c1ccccc1]	> 100	> 100	1	0.0007	–
O=C(Nc1nc2cc(Cl)ccc2o1)c1cc(-c2ccccc2)nc2ccccc12 [CSFC-5, Clc1cc2nc(NC(=O)c3cc(nc4ccccc43)c3ccccc3)oc2cc1]	> 100	> 100	1	0.0007	–
O=C(Nc1ccccn1)c1cc(-c2ccccc2)nc2ccccc12 [CSFC-6, O=C(Nc1ccccn1)c1cc(nc2ccccc21)c1ccccc1]	> 100	> 100	1	0.0007	–
O=C(Nc1cccnc1)c1cc(-c2ccccc2)nc2ccccc12 [CSFC-7, O=C(Nc1cccnc1)c1cc(nc2ccccc21)c1ccccc1]	> 100	> 100	1	0.0007	–
O=C(Nc1ccncc1)c1cc(-c2ccccc2)nc2ccccc12 [CSFC-8, O=C(Nc1ccncc1)c1cc(nc2ccccc21)c1ccccc1]	> 100	> 100	1	0.0007	–
COc1ccc2nc(NC(=O)c3cc(-c4ccccc4)nc4ccccc34)sc2c1 [CSFC-9, COc1ccc2nc(NC(=O)c3cc(nc4ccccc43)c3ccccc3)sc2c1]	> 100	0.3	333	0.23	–
O=C(Nc1nc2ccc(Cl)cc2s1)c1cc(-c2ccccc2)nc2ccccc12 [CSFC-10, Clc1ccc2nc(NC(=O)c3cc(nc4ccccc43)c3ccccc3)sc2c1]	> 100	0.5	200	0.14	–
Cc1cc2nc(NC(=O)c3cc(-c4ccccc4)nc4ccccc34)sc2cc1C [CSFC-11, Cc1cc2nc(NC(=O)c3cc(nc4ccccc43)c3ccccc3)sc2cc1C]	> 100	0.3	333	0.23	–
O=C(Nc1nc2ccc([N+](=O)[O-])cc2s1)c1cc(-c2ccccc2)nc2ccccc12 [CSFC-12, [O-][N+](=O)c1ccc2nc(NC(=O)c3cc(nc4ccccc43)c3ccccc3)sc2c1]	46.8	> 100	0.5	0.0007	–
O=C(Nc1nc2ccccc2s1)c1cc(-c2ccccc2)nc2ccccc12 [CSFC-13, O=C(Nc1nc2ccccc2s1)c1cc(nc2ccccc21)c1ccccc1]	> 100	1.2	–	0.06	–
O=C(Nc1nc2ccc(Br)cc2s1)c1cc(-c2ccccc2)nc2ccccc12 [CSFC-14, Brc1ccc2nc(NC(=O)c3cc(nc4ccccc43)c3ccccc3)sc2c1]	> 100	1.4	71	0.05	–
O=C(Nc1nc2c(Cl)cccc2s1)c1cc(-c2ccccc2)nc2ccccc12 [CSFC-15, Clc1cccc2sc(nc21)NC(=O)c1cc(nc2ccccc21)c1ccccc1]	> 100	0.8	125	0.09	–
O=C(Nc1nccs1)c1cc(-c2ccccc2)nc2ccccc12 [CSFC-16, O=C(c1cc(nc2ccccc12)c3ccccc3)Nc4nccs4]	> 100	30	3	–	0.00667
Cc1ccc2nc(NC(=O)c3ccnc4ccccc34)sc2c1 [CSFC-17, Cc1ccc2nc(sc2c1)NC(=O)c4ccnc3ccccc34]	> 100	100	1	–	0.002
O=C(Nc1nc2ccc(F)cc2s1)c1cc(-c2ccccc2)nc2ccccc12 [CSFC-18, Fc1ccc2nc(NC(=O)c3cc(nc4ccccc43)c3ccccc3)sc2c1]	> 100	0.3	333	0.23	–
COc1cccc2sc(NC(=O)c3cc(-c4ccccc4)nc4ccccc34)nc12 [CSFC-19, COc1cccc2sc(nc12)NC(=O)c1cc(nc2ccccc21)c1ccccc1]	> 100	0.4	250	0.18	–
Cc1ccc2nc(N(C)C(=O)c3cc(-c4ccccc4)nc4ccccc34)sc2c1 [CSFC-21, O=C(c1cc(nc2ccccc21)c1ccccc1)N(C)c1nc2ccc(C)cc2s1]	> 100	> 100	1	0.0007	–

Structure (SMILES)	CC50 at 5 days [1] [µM]	EC50 (BVDV NADL virus) [µM]	S.I. (BVDV NADL virus)	fold increase (BVDV NADL virus; [2])	fold increase (BVDV NADL virus; [3])
Cc1ccc2nc(NC(=O)c3ccncc3)sc2c1 [CSFC-22, Cc1ccc2nc(NC(=O)c3ccncc3)sc2c1]	> 100	> 100	1	0.0007	–
Cc1ccc2nc(NC(=O)c3cccnc3)sc2c1 [CSFC-23, Cc1ccc2nc(NC(=O)c3cccnc3)sc2c1]	> 100	> 100	1	0.0007	–
Cc1ccc2nc(NC(=O)c3cccc4ccccc34)sc2c1 [CSFC-24, Cc1ccc2nc(NC(=O)c3cccc4ccccc43)sc2c1]	> 100	> 100	1	0.0007	–
Cc1ccc2nc(NC(=O)c3ccccn3)sc2c1 [CSFC-25, Cc1ccc2nc(NC(=O)c3ccccn3)sc2c1]	> 100	> 100	1	0.0007	–
Cc1ccc2nc(NC(=O)c3cc4ccccc4n3C)sc2c1 [CSFC-26, Cn1c2ccccc2cc1C(=O)Nc1nc2ccc(C)cc2s1]	> 100	> 100	1	0.0007	–
Cc1ccc2nc(NC(=O)c3cc[n+]([O-])cc3)sc2c1 [CSFC-27, [O-][n+]1ccc(cc1)C(=O)Nc1nc2ccc(C)cc2s1]	> 100	> 100	1	0.0007	–
Cc1ccc2nc(NC(=O)c3cc4ccccc4[nH]3)sc2c1 [CSFC-28, Cc1ccc2nc(NC(=O)c3cc4ccccc4[NH]3)sc2c1]	> 100	> 100	1	0.0007	–
Cc1ccc2nc(NC(=O)c3ccccc3)sc2c1 [CSFC-29, Cc1ccc2nc(NC(=O)c3ccccc3)sc2c1]	> 100	> 100	1	0.0007	–
Cc1ccc2nc(NC(=O)c3ncc[nH]3)sc2c1 [CSFC-30, Cc1ccc2nc(NC(=O)c3ncc[NH]3)sc2c1]	> 100	> 100	1	0.0007	–
Cc1ccc2nc(NC(=O)c3cc(O)nc4ccccc34)sc2c1 [CSFC-31, Oc1nc2ccccc2c(c1)C(=O)Nc1nc2ccc(C)cc2s1]	> 100	> 100	1	0.0007	–
CC(C)(C)c1cc(NC(=O)c2cc(-c3ccccc3)nc3ccccc23)no1 [CSFC-32, O=C(Nc1cc(on1)C(C)(C)C)c3cc(nc2ccccc23)c4ccccc4]	> 100	7.2	14	–	0.0278
Cc1ccc2nc(NC(=O)c3nccn3C)sc2c1 [CSFC-33, Cn1ccnc1C(=O)Nc1nc2ccc(C)cc2s1]	> 100	46	2	0.00152	–
Cc1cccc2sc(NC(=O)c3cc(-c4ccco4)nc4ccccc34)nc12 [CSFC-35, Cc1cccc2sc(nc12)NC(=O)c1cc(nc2ccccc21)c1ccco1]	> 100	0.3	333	0.23	–
Cc1noc(C)c1NC(=O)c1cc(-c2ccccc2)nc2ccccc12 [CSFC-36, O=C(Nc1c(C)onc1C)c3cc(nc2ccccc23)c4ccccc4]	> 100	47.2	2	–	0.00424
Cc1noc(C)c1NC(=O)c1cc(-c2ccco2)nc2ccccc12 [CSFC-37, O=C(Nc1c(C)onc1C)c3cc(nc2ccccc23)c4ccco4]	> 100	34.2	3	–	0.00585
COc1ccc2nc(NC(=O)c3cc(-c4ccco4)nc4ccccc34)sc2c1 [CSFC-38, COc1ccc2nc(NC(=O)c3cc(nc4ccccc43)c3ccco3)sc2c1]	> 100	0.09	1111	0.78	–
Cc1cc2nc(NC(=O)c3cc(-c4ccco4)nc4ccccc34)sc2cc1C [CSFC-39, Cc1cc2nc(NC(=O)c3cc(nc4ccccc43)c3ccco3)sc2cc1C]	> 100	0.6	167	0.12	–
Cc1cc(NC(=O)c2cc(-c3ccccc3)nc3ccccc23)no1 [CSFC-40, Cc1cc(no1)NC(=O)c3cc(nc2ccccc23)c4ccccc4]	> 100	94	1	–	0.00213
Cc1cc(NC(=O)c2cc(-c3ccccc3)nc3ccccc23)on1 [CSFC-41, O=C(Nc1cc(C)no1)c3cc(nc2ccccc23)c4ccccc4]	> 100	34.6	3	–	0.00578
